Test results: patent US9409916B2, “Piperidinone carboxamide spirohydantoin CGRP receptor antagonists” (Merck Sharp & Dohme Corp., priority 2011, dated 2016)

These compounds were tested against T1, recombinant human CL receptor/RAMP1 (Homo sapiens, UniProt O60894+Q16602) (assay: Recombinant receptor binding assay (125I-hCGRP)). Conditions: membranes of HEK 293 cells expressing human CL receptor/RAMP1, 10 pM 125I-hCGRP.
T1 construct: expressed in transfected cells; membranes
Experimental: RECOMBINANT RECEPTOR: Human CL receptor (Genbank accession number L76380) was subcloned into the expression vector pIREShyg2 (BD Biosciences Clontech) as a 5′NheI and 3′ PmeI fragment. Human RAMP1 (Genbank accession number AJ001014) was subcloned into the expression vector pIRESpuro2 (BD Biosciences Clontech) as a 5′NheI and 3′NotI fragment. HEK 293 cells (human embryonic kidney cells; ATCC #CRL-1573) were cultured in DMEM with 4.5 g/L glucose, 1 mM sodium pyruvate and 2 mM glutamine supplemented with 10% fetal bovine serum (FBS), 100 units/mL penicillin and 100 μg/mL streptomycin, and maintained at 37° C. and 95% humidity. Cells were subcultured by treatment with 0.25% trypsin with 0.1% EDTA in HBSS. Stable cell line generation was accomplished by co-transfecting 10 μg of DNA with 30 μg Lipofectamine 2000 (Invitrogen) in 75 cm^2 flasks. CL receptor and RAMP1 expression constructs were co-transfected in equal amounts. Twenty-four hours after transfection the cells were diluted and selective medium (growth medium+300 μg/mL hygromycin and 1 μg/mL puromycin) was added the following day. A clonal cell line was generated by single cell deposition utilizing a FACS Vantage SE (Becton Dickinson). Growth medium was adjusted to 150 μg/mL hygromycin and 0.5 μg/mL puromycin for cell propagation.
RECOMBINANT RECEPTOR BINDING ASSAY: Cells expressing recombinant human CL receptor/RAMP1 were washed with PBS and harvested in harvest buffer containing 50 mM HEPES, 1 mM EDTA and Complete™ protease inhibitors (Roche). The cell suspension was disrupted with a laboratory homogenizer and centrifuged at 48,000 g to isolate membranes. The pellets were resuspended in harvest buffer plus 250 mM sucrose and stored at −70° C. For binding assays, 20 μg of membranes were incubated in 1 mL binding buffer (10 mM HEPES, pH 7.4, 5 mM MgCl2, and 0.2% BSA) for 3 h at room temperature containing 10 pM ^125I-hCGRP (GE Healthcare) and antagonist. The assay was terminated by filtration through 96-well GFB glass fiber filter plates (PerkinElmer) that had been blocked with 0.05% polyethyleneimine. […]

T1 sequence (Q16602 23-461): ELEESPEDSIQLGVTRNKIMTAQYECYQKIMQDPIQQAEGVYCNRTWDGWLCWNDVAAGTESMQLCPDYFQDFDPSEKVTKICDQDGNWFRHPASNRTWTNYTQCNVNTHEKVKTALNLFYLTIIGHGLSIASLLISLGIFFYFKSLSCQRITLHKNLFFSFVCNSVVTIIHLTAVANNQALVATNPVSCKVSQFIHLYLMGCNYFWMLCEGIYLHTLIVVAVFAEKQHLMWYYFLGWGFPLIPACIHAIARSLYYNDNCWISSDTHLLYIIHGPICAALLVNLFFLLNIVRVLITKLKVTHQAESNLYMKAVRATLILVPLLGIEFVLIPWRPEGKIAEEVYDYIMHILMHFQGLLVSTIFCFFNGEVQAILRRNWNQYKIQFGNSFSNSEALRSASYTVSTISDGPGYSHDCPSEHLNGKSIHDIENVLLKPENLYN
T1 sequence (O60894 27-148): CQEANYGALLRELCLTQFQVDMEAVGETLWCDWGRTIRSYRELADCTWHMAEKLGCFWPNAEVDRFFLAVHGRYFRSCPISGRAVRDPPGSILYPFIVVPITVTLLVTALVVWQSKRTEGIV

Ki | Structure (SMILES)
0.28 nM | C[C@@H]1[C@H](c2cc(F)cc(F)c2F)C[C@H](NC(=O)c2cnc3c(c2)C[C@@]2(C3)C(=O)NC(=O)N2C)C(=O)N1CC(F)(F)F [Example 3]
0.059 nM | C[C@@H]1[C@H](c2c(F)c(F)cc(F)c2F)C[C@H](NC(=O)c2cnc3c(c2)C[C@@]2(C3)C(=O)NC(=O)N2C)C(=O)N1CC(F)(F)F [Example 2, (6R)-3′-Methyl-N-[(3S,5S,6R)-6-methyl-2-oxo-1-(2,2,2-trifluoroethyl)-5-(2,3,5,6-tetrafluorophenyl)piperidin-3-yl]-2′,5′-dioxo-5,7-dihydrospiro[cyclopenta[b]pyridine-6,4′-imidazolidine]-3-carboxamide]
0.061 nM | C[C@@H]1[C@H](c2c(F)ccc(F)c2F)C[C@H](NC(=O)c2cnc3c(c2)C[C@@]2(C3)C(=O)NC(=O)N2C)C(=O)N1CC(F)(F)F [Example 1, (6R)-3′-Methyl-N-[(3S,5S,6R)-6-methyl-2-oxo-1-(2,2,2-trifluoroethyl)-5-(2,3,6-trifluorophenyl)piperidin-3-yl]-2′,5′-dioxo-5,7-dihydrospiro[cyclopenta[b]pyridine-6,4′-imidazolidine]-3-carboxamide]
